Measurements from patent US10226503B2, “Plant extract composition for reducing topical fat and promoting weight loss as well as applications thereof” (Caliway Biopharmaceuticals Co., Ltd., priority 2014, dated 2019).

Key:
[1] = system: mature adipocytes (3T3-L1); assay: Adipocyte apoptosis assay (IV), Annexin V/PI flow cytometry; type: cell-based; settings: 100 ppm, 24 hours
Description: In this embodiment, the effect of composition UL003C in the present invention on mature adipocytes apoptosis promotion was compared with that of the well-known sodium deoxycholate. In this embodiment, 3T3-L1 cells were incubated in 12-well plates with 1×10^5 cells per well. The medium was replaced with an incubation fluid containing 5 μg/ml of insulin differentiation agent, 1 μM of dexamethasone, and 0.5 mM of 3-isobutyl-1-methylxanthine on the fourth day of incubation. After four days incubation in the incubation fluid containing differentiation agent and waiting until the adipocyte cells matures, with the exception of the DMSO solvent control group, 100 ppm of composition UL003C and sodium deoxycholate were added to different wells respectively; there are three groups in the experiment, and three replicates were performed in each group. After administration process and 24 hours incubation, cells were collected and Annexin V/PI stain was performed. Cell apoptosis was analyzed by flow cytometry, wherein Annexin V−PI− cells represented the number of the survival mature adipocytes, and Annexin V+PI+ cells represented the number of the apoptotic mature adipocytes; this method is used to compare the apoptosis degree induced by the experimental matters in the two groups.

[2] = system: adipose tissue in the inferior inguinal region; assay: Embodiment 10: observation of the injected inferior inguinal region after dissection; type: in vivo, Sprague-Dawley rats; settings: FIG. 11A-F
Excerpt: There were 9 groups in this experiment, that is, the HFD group, the curcumin group, the resveratrol group, the UL003C group, the UL003R group, the UL005 group, the UL006 group, the UL003C6 group, and the UL003R4 group. The rats were fed and injected in the same manner described in Embodiment 9.

[3] = system: mature adipocytes (3T3-L1); assay: Adipocyte apoptosis assay (V), Annexin V/PI flow cytometry; type: cell-based; settings: 50 ppm, 24 hours, DMSO control 5.14±2.05%
Description: 3T3-L1 cells were incubated in 12-well plates with 1×10^5 cells per well. The medium was replaced with a DMI medium containing 5 μg/ml of insulin, 0.1 μM of dexamethasone, and 0.5 mM of 3-isobutyl-1-methylxanthine (referred as IBMX) on the third day of incubation. After seven days incubation in the medium containing differentiation agent and waiting until the adipocyte cells matures, with the exception of the DMSO solvent control group, 50 ppm of curcumin, resveratrol, composition UL003C6, composition UL003C5, composition UL003C4, composition UL003C3, composition UL003C2, composition UL003C1, composition UL003B, composition UL003R1, composition UL003R2, and composition UL003R3 were added to different wells respectively; there are 13 groups in the experiment, and four replicates were performed in each group.
Please refer to Table 1, which presents the experimental matters and their final concentration in each group. […]
After administration process and 24 hours incubation, cells were collected and Annexin V/PI stain was performed. Cell apoptosis was analyzed by flow cytometry, wherein Annexin V−PI− cells represented the number of the survival mature adipocytes, and Annexin V+PI+ cells represented the number of the apoptotic mature adipocytes; this method is used to compare the apoptosis degree induced by the experimental matters in each group.

[4] = Embodiment 10: resveratrol:curcumin ratio effect (with ELP) on body weight gain of high-fat diet rats; type: in vivo, Sprague-Dawley rats; settings: 5 mg/mL with ELP, relative to HFD group 100.0±25.7%
Description: The body weight of each rat was recorded and defined as the “post-experimental body weight” of each rat. The “total body weight gain” of each rat was obtained by subtracting its “pre-experimental body weight” from its “post-experimental body weight”. The “relative weight gain” was obtained by dividing the total body weight gain of each group by the total body weight gain of the HFD group.
The only differences were the ratio of resveratrol and curcumin.
In this experiment, the ratios of resveratrol to curcumin in the first group to the eighth group were 0:1, 1:0, 1:19, 9:1, 1:1, 1:30, 1:50, 20:1, respectively, and the final concentrations of resveratrol and curcumin in the pharmaceutical compositions prepared in the first to the eighth group were 5 mg/mL. That is, the preparation method of pharmaceutical composition in the first to the eighth group, the weight ratios of resveratrol to curcumin were 0:1, 1:0, 1:19, 9:1, 1:1, 1:30, 1:50, 20:1, respectively, and the final concentrations of resveratrol and curcumin in the prepared pharmaceutical compositions were 5 mg/mL. Wherein, when the final concentration of drug was presented as mg/mL, it indicated the number of milligrams of resveratrol and curcumin per milliliter of pharmaceutical composition.

[5] = system: lower inguinal subcutaneous fat; assay: Embodiment 10: resveratrol:curcumin ratio effect (with ELP) on subcutaneous fat of high-fat diet rats; type: in vivo, Sprague-Dawley rats; settings: 5 mg/mL with ELP, injected as in Embodiment 9, relative to HFD group 100±22.3%
Description: The bilateral lower inguinal subcutaneous fat pads of rats were dissected and weighed, and the weights of the bilateral lower inguinal subcutaneous fat pads were summed to calculate the amount of lower inguinal subcutaneous fat. […] The data were presented as mean±SD and analyzed by one-way ANOVA. Statistical results were shown as symbols or letters. Different symbols or letters indicates statistically significant difference (p<0.05), and identical symbols or letters indicates no statistically significant difference (p>0.05).
The preparation of pharmaceutical composition (curcumin solution, resveratrol solution, UL003C solution, UL003R solution, UL005 solution, UL006 solution, UL003C6 solution, or UL003R4 solution) in each group was roughly the same as the experimental procedure in Experiment 9. The only differences were the ratio of resveratrol and curcumin. In this experiment, the guideline of adding all of the ratio of resveratrol and curcumin, the weight of ELP, and the weight of normal saline for injection was shown in Table 1.
In this experiment, the ratios of resveratrol to curcumin in the first group to the eighth group were 0:1, 1:0, 1:19, 9:1, 1:1, 1:30, 1:50, 20:1, respectively, and the final concentrations of resveratrol and curcumin in the pharmaceutical compositions prepared in the first to the eighth group were 5 mg/mL. […]

Row | Molecule | mature adipocytes apoptosis compared to DMSO solvent control group [1] | ulcer / curcumin precipitation in the inferior inguinal region (injection site) [2] | percentage of apoptotic cells [3] [%] | relative weight gain [4] [%] | relative weight of the lower inguinal subcutaneous fat [5] [%]
1 | sodium deoxycholate | no significant difference | – | – | – | –
2 | Oc1ccc(C=Cc2cc(O)cc(O)c2)cc1 [resveratrol] | – | ulcer | 8.48±3.23 | 91.7±11.4 | 85.7±5.1
3 | COc1cc(/C=C/C(=O)CC(=O)/C=C/c2ccc(O)c(OC)c2)ccc1O [curcumin] | – | curcumin precipitation was observed | 15.43±4.31 | 103.6±7.2 | 90.4±12.6
